Assays:
Test in all cases: relative viability (nuclei count vs DMSO), 5 days (fraction); higher = more cells survive
[1] = compound: CC1CC(=O)N(C2=CN=C(N=C2N1C3CCCC3)NC4=C(C=C(C=C4)C(=O)NC5CCN(CC5)C)OC)C [NPK76-II-72-1] + CC(C)C[C@H](NC(=O)[C@H](Cc1ccccc1)NC(=O)c1cnccn1)B(O)O [Bortezomib] (partner 0.002 µM)
In short: (§1)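 Lung cancer cell lines in 1536-well plates got either a single drug or a fixed anchor-drug dose together with five library-drug doses (not always all listed) in √10 steps, by pin tool, on the day after seeding. Nuclei were counted after 5 days, and relative viability is the treated-to-vehicle ratio of nuclei counts. Values are medians of duplicate plates.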

[2] = compound: CC1CC(=O)N(C2=CN=C(N=C2N1C3CCCC3)NC4=C(C=C(C=C4)C(=O)NC5CCN(CC5)C)OC)C [NPK76-II-72-1] + O=C(CCCCCCC(=O)Nc1ccccc1)NO [Vorinostat] (partner 1 µM)
In short: as §1

BI-2536 + Phenformin = compound: CC[C@@H]1C(=O)N(C)c2cnc(Nc3ccc(C(=O)NC4CCN(C)CC4)cc3OC)nc2N1C1CCCC1 [BI-2536] + N=C(N)NC(=N)NCCc1ccccc1 [Phenformin] (partner 250 µM)
In short: as §1

BI-2536 + AZD7762 = compound: CC[C@@H]1C(=O)N(C)c2cnc(Nc3ccc(C(=O)NC4CCN(C)CC4)cc3OC)nc2N1C1CCCC1 [BI-2536] + NC(=O)Nc1cc(-c2cccc(F)c2)sc1C(=O)N[C@H]1CCCNC1 [AZD7762] (partner 0.2 µM)
In short: as §1

NCI-H1355
relative viability ([1]; first compound 0.01 µM): 1.06 | relative viability ([1]; first compound 0.03162 µM): 1.12 | relative viability ([1]; first compound 0.1 µM): 1.03 | relative viability ([1]; first compound 0.3162 µM): 1.13 | relative viability ([1]; first compound 1 µM): 1.19 | relative viability ([2]; first compound 0.01 µM): 0.597 | relative viability ([2]; first compound 0.03162 µM): 0.613 | relative viability ([2]; first compound 0.1 µM): 0.606 | relative viability ([2]; first compound 0.3162 µM): 0.56 | relative viability ([2]; first compound 1 µM): 0.715 | relative viability (BI-2536 + Phenformin; first compound 0.01 µM): 0.427 | relative viability (BI-2536 + Phenformin; first compound 0.03162 µM): 0.408 | relative viability (BI-2536 + Phenformin; first compound 0.1 µM): 0.219 | relative viability (BI-2536 + Phenformin; first compound 0.3162 µM): 0.193 | relative viability (BI-2536 + Phenformin; first compound 1 µM): 0.196 | relative viability (BI-2536 + AZD7762; first compound 0.01 µM): 0.697 | relative viability (BI-2536 + AZD7762; first compound 0.03162 µM): 0.776 | relative viability (BI-2536 + AZD7762; first compound 0.1 µM): 0.751 | relative viability (BI-2536 + AZD7762; first compound 0.3162 µM): 0.269 | relative viability (BI-2536 + AZD7762; first compound 1 µM): 0.185

HCC-78
relative viability ([1]; first compound 0.01 µM): 0.532 | relative viability ([1]; first compound 0.03162 µM): 0.565 | relative viability ([1]; first compound 0.1 µM): 0.398 | relative viability ([1]; first compound 0.3162 µM): 0.52 | relative viability ([1]; first compound 1 µM): 0.998 | relative viability ([2]; first compound 0.01 µM): 0.456 | relative viability ([2]; first compound 0.03162 µM): 0.461 | relative viability ([2]; first compound 0.1 µM): 0.463 | relative viability ([2]; first compound 0.3162 µM): 0.418 | relative viability ([2]; first compound 1 µM): 0.499 | relative viability (BI-2536 + Phenformin; first compound 0.01 µM): 0.74 | relative viability (BI-2536 + Phenformin; first compound 0.03162 µM): 0.721 | relative viability (BI-2536 + Phenformin; first compound 0.1 µM): 0.636 | relative viability (BI-2536 + Phenformin; first compound 0.3162 µM): 0.315 | relative viability (BI-2536 + Phenformin; first compound 1 µM): 0.197 | relative viability (BI-2536 + AZD7762; first compound 0.01 µM): 0.75 | relative viability (BI-2536 + AZD7762; first compound 0.03162 µM): 0.576 | relative viability (BI-2536 + AZD7762; first compound 0.1 µM): 0.687 | relative viability (BI-2536 + AZD7762; first compound 0.3162 µM): 0.433 | relative viability (BI-2536 + AZD7762; first compound 1 µM): 0.249

HCC-15
relative viability ([1]; first compound 0.01 µM): 0.995 | relative viability ([1]; first compound 0.03162 µM): 1.11 | relative viability ([1]; first compound 0.1 µM): 1.05 | relative viability ([1]; first compound 0.3162 µM): 1.02 | relative viability ([1]; first compound 1 µM): 1.02 | relative viability ([2]; first compound 0.01 µM): 0.785 | relative viability ([2]; first compound 0.03162 µM): 0.914 | relative viability ([2]; first compound 0.1 µM): 0.814 | relative viability ([2]; first compound 0.3162 µM): 0.767 | relative viability ([2]; first compound 1 µM): 0.91 | relative viability (BI-2536 + Phenformin; first compound 0.01 µM): 0.474 | relative viability (BI-2536 + Phenformin; first compound 0.03162 µM): 0.485 | relative viability (BI-2536 + Phenformin; first compound 0.1 µM): 0.149 | relative viability (BI-2536 + Phenformin; first compound 0.3162 µM): 0.103 | relative viability (BI-2536 + Phenformin; first compound 1 µM): 0.108 | relative viability (BI-2536 + AZD7762; first compound 0.01 µM): 0.653 | relative viability (BI-2536 + AZD7762; first compound 0.03162 µM): 0.966 | relative viability (BI-2536 + AZD7762; first compound 0.1 µM): 1.03 | relative viability (BI-2536 + AZD7762; first compound 0.3162 µM): 0.156 | relative viability (BI-2536 + AZD7762; first compound 1 µM): 0.149

EKVX
relative viability ([1]; first compound 0.01 µM): 1.01 | relative viability ([1]; first compound 0.03162 µM): 0.998 | relative viability ([1]; first compound 0.1 µM): 1.03 | relative viability ([1]; first compound 0.3162 µM): 0.637 | relative viability ([1]; first compound 1 µM): 1.04 | relative viability ([2]; first compound 0.01 µM): 0.634 | relative viability ([2]; first compound 0.03162 µM): 0.736 | relative viability ([2]; first compound 0.1 µM): 0.684 | relative viability ([2]; first compound 1 µM): 0.921 | relative viability (BI-2536 + Phenformin; first compound 0.01 µM): 0.242 | relative viability (BI-2536 + Phenformin; first compound 0.03162 µM): 0.224 | relative viability (BI-2536 + Phenformin; first compound 0.1 µM): 0.225 | relative viability (BI-2536 + Phenformin; first compound 0.3162 µM): 0.242 | relative viability (BI-2536 + Phenformin; first compound 1 µM): 0.211 | relative viability (BI-2536 + AZD7762; first compound 0.01 µM): 0.613 | relative viability (BI-2536 + AZD7762; first compound 0.03162 µM): 0.877 | relative viability (BI-2536 + AZD7762; first compound 0.1 µM): 0.63 | relative viability (BI-2536 + AZD7762; first compound 0.3162 µM): 0.614 | relative viability (BI-2536 + AZD7762; first compound 1 µM): 0.276
